Results from ChEMBL document CHEMBL1201862, “PubChem BioAssay data set” (2004).
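Results reflect a 48-hour exposure of cells in 96-well plates to compound at five concentrations. The concentration for 50% growth inhibition is given as GI50.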 Active and inactive are the calls of the source. Cut-off read from the data, not from the text of the source: active = GI50 up to about 1.1 µM and inactive = higher.

Assays:
Assay in all cases: inhibition of tumour cell growth, NCI panel, 48 h
BT-549 = system: BT-549
CCRF-CEM = system: CCRF-CEM
DU-145 = system: DU-145
IGROV-1 = system: IGROV-1
KM12 = system: KM12
MDA-MB-435 = system: MDA-MB-435
MDA-N = system: MDA-N
NCI-H226 = system: NCI-H226
NCI/ADR-RES = system: NCI/ADR-RES
SF-295 = system: SF-295
SK-MEL-28 = system: SK-MEL-28
SK-MEL-5 = system: SK-MEL-5
SK-OV-3 = system: SK-OV-3
SN12C = system: SN12C
SNB-19 = system: SNB-19
UACC-62 = system: UACC-62
HCC 2998 = system: HCC 2998
HOP-92 = system: HOP-92
K562 = system: K562
SR = system: SR

Measured: GI50

CC1(CC(=O)OC(C#C[Si](C)(C)C)Cc2ccccc2)OCCO1 (stereo not drawn)
inactive: BT-549 > 100 µM | CCRF-CEM > 100 µM | DU-145 > 100 µM | IGROV-1 > 100 µM | KM12 > 100 µM | MDA-MB-435 > 100 µM | MDA-N > 100 µM | NCI-H226 > 100 µM | NCI/ADR-RES > 100 µM | SF-295 > 100 µM | SK-MEL-28 > 100 µM | SK-MEL-5 > 100 µM | SK-OV-3 > 100 µM | SN12C > 100 µM | SNB-19 > 100 µM | UACC-62 > 100 µM

N=c1c2ccccc2nc2oc3ccccc3n12
inactive: BT-549 51.2 µM | CCRF-CEM 55 µM | HCC 2998 > 100 µM | HOP-92 26.5 µM | IGROV-1 20.6 µM | K562 > 100 µM | MDA-MB-435 > 100 µM | NCI/ADR-RES 31.5 µM | SF-295 > 100 µM | SK-MEL-28 > 10 µM | SK-MEL-5 15.5 µM | SK-OV-3 40.6 µM | SN12C > 100 µM | SNB-19 25.5 µM | UACC-62 28.6 µM

COc1ccccc1C(=O)N(C)c1ccc(Cl)c(C(=O)OC(C)C)c1
inactive: BT-549 33 µM | CCRF-CEM > 100 µM | DU-145 42.5 µM | HCC 2998 27 µM | HOP-92 48.2 µM | IGROV-1 > 100 µM | KM12 23.3 µM | MDA-MB-435 29.4 µM | MDA-N 40.8 µM | NCI-H226 > 100 µM | NCI/ADR-RES 52.1 µM | SF-295 30.6 µM | SK-MEL-28 49.7 µM | SK-MEL-5 22.8 µM | SK-OV-3 45.5 µM | SN12C > 100 µM | SNB-19 > 100 µM | UACC-62 48.8 µM

CN(C)P(=O)(Oc1occc1C(O)Cc1ccccc1)N(C)C (stereo not drawn)
inactive: BT-549 > 100 µM | CCRF-CEM > 100 µM | HCC 2998 > 100 µM | KM12 > 100 µM | MDA-MB-435 > 100 µM | MDA-N > 100 µM | NCI-H226 > 100 µM | NCI/ADR-RES > 100 µM | SF-295 > 100 µM | SK-MEL-28 > 100 µM | SK-MEL-5 > 100 µM | SK-OV-3 > 100 µM | SN12C > 100 µM | SNB-19 > 100 µM

Cc1ccc(Nc2c3c(c(C#N)c4nc5ccccc5n24)CCCC3)cc1
inactive: BT-549 35.8 µM | CCRF-CEM 6.05 µM | DU-145 52.7 µM | HCC 2998 17.6 µM | HOP-92 17.1 µM | IGROV-1 28.2 µM | K562 4.39 µM | KM12 > 100 µM | MDA-MB-435 18.2 µM | MDA-N 28.7 µM | NCI-H226 21.7 µM | NCI/ADR-RES 21.3 µM | SF-295 13 µM | SK-MEL-28 22.1 µM | SK-MEL-5 10.7 µM | SK-OV-3 38 µM | SN12C 17.4 µM | SNB-19 38.4 µM | UACC-62 14.7 µM

CC(=O)Oc1ccc2c(c1)Oc1cc(C(C)=O)ccc1C21OC(=O)c2ccccc21 (stereo not drawn)
inactive: BT-549 > 100 µM | DU-145 > 100 µM | HCC 2998 > 100 µM | HOP-92 > 100 µM | IGROV-1 85.5 µM | K562 > 100 µM | KM12 > 100 µM | MDA-MB-435 88.3 µM | MDA-N > 100 µM | NCI/ADR-RES > 100 µM | SF-295 > 100 µM | SK-MEL-28 > 100 µM | SK-MEL-5 > 100 µM | SK-OV-3 94.8 µM | SN12C > 100 µM | SNB-19 > 100 µM | UACC-62 > 100 µM

COc1ccc2c3c1O[C@H]1C(OC)C=CC4C(C2)N(Cc2cccs2)CCC341 (stereo partly drawn)
inactive: BT-549 40.1 µM | CCRF-CEM 49.7 µM | HCC 2998 > 100 µM | HOP-92 > 100 µM | IGROV-1 > 100 µM | K562 51.6 µM | MDA-MB-435 41.5 µM | MDA-N 60 µM | NCI/ADR-RES 33.7 µM | SF-295 61 µM | SK-OV-3 > 100 µM | SN12C > 100 µM | SNB-19 > 100 µM | SR 75.5 µM | UACC-62 > 10 µM

N=C1OC(c2cccc(Cl)c2)C(NNS(=O)(=O)c2ccccc2)=C1O (stereo not drawn)
inactive: BT-549 37 µM | CCRF-CEM 2.32 µM | DU-145 > 100 µM | HCC 2998 36.4 µM | HOP-92 23.6 µM | IGROV-1 70.5 µM | K562 3.69 µM | KM12 47.8 µM | MDA-MB-435 33 µM | MDA-N 14.5 µM | NCI-H226 43.9 µM | SF-295 57 µM | SK-MEL-28 20.9 µM | SK-MEL-5 41.7 µM | SK-OV-3 > 100 µM | SN12C 44.7 µM | SNB-19 55.5 µM | SR 2.37 µM | UACC-62 24.9 µM

O=P(O)(O)C(N=C(Nc1ccccc1)Nc1ccccc1)P(=O)(O)O
inactive: BT-549 > 100 µM | DU-145 > 100 µM | HCC 2998 > 100 µM | IGROV-1 > 100 µM | KM12 > 100 µM | MDA-N > 100 µM | NCI-H226 > 100 µM | NCI/ADR-RES > 100 µM | SF-295 > 100 µM | SK-MEL-5 > 100 µM | SK-OV-3 > 100 µM | SNB-19 > 100 µM | UACC-62 > 100 µM

CCOC(=O)C1=C(C)N(CC(C)C)C2(O)C(OC)CC(=O)C3C(=O)N(c4ccccc4)C(=O)C132 (stereo not drawn)
inactive: BT-549 40.4 µM | CCRF-CEM 40.4 µM | DU-145 52 µM | HCC 2998 24.8 µM | HOP-92 45.6 µM | IGROV-1 20.1 µM | K562 31.9 µM | KM12 25.9 µM | MDA-MB-435 37 µM | NCI-H226 26.1 µM | NCI/ADR-RES 53.8 µM | SF-295 52.4 µM | SK-MEL-28 23.8 µM | SK-MEL-5 20.1 µM | SN12C 36 µM | SNB-19 42.4 µM | SR 21.4 µM | UACC-62 19.3 µM

O=S(=O)(CCn1c(Sc2ccccc2)c(Sc2ccccc2)c2ccccc21)c1ccccc1
inactive: BT-549 > 100 µM | CCRF-CEM > 100 µM | DU-145 > 100 µM | HCC 2998 > 100 µM | IGROV-1 > 100 µM | K562 > 100 µM | KM12 > 100 µM | MDA-MB-435 > 100 µM | NCI-H226 > 100 µM | NCI/ADR-RES > 100 µM | SF-295 > 100 µM | SK-MEL-28 > 100 µM | SK-MEL-5 > 100 µM | SK-OV-3 > 100 µM | SN12C > 100 µM | SNB-19 > 100 µM | SR > 100 µM | UACC-62 > 100 µM

COC(=O)[C@H]1CO[C@@H](C(C)(C)C)N1C(=O)N1C=CC(=O)C[C@@H]1C
inactive: BT-549 > 100 µM | CCRF-CEM > 100 µM | DU-145 > 100 µM | HOP-92 > 100 µM | IGROV-1 > 100 µM | K562 > 100 µM | KM12 > 100 µM | MDA-MB-435 > 100 µM | MDA-N > 100 µM | NCI-H226 > 100 µM | NCI/ADR-RES > 100 µM | SF-295 > 100 µM | SK-MEL-28 > 100 µM | SK-MEL-5 > 100 µM | SK-OV-3 > 100 µM | SN12C > 100 µM | SR > 100 µM | UACC-62 > 100 µM

CN(C)c1ccc(/C=C(\NC(=O)c2ccccc2)c2nn(C)c(=O)o2)cc1
inactive: BT-549 > 100 µM | CCRF-CEM 34.7 µM | DU-145 > 100 µM | HCC 2998 > 100 µM | HOP-92 > 100 µM | IGROV-1 58.6 µM | K562 > 100 µM | KM12 37.6 µM | MDA-MB-435 69 µM | MDA-N 53.6 µM | NCI-H226 23.4 µM | NCI/ADR-RES 21.7 µM | SF-295 47.5 µM | SK-MEL-28 > 100 µM | SK-MEL-5 26.3 µM | SK-OV-3 > 100 µM | SN12C > 100 µM | SNB-19 28.1 µM | UACC-62 > 100 µM

CN(/N=C/C=N/N(C)C1=NCCCN1)C1=NCCCN1
inactive: BT-549 > 100 µM | CCRF-CEM > 100 µM | HCC 2998 > 100 µM | HOP-92 > 100 µM | IGROV-1 > 100 µM | K562 > 100 µM | KM12 > 100 µM | MDA-MB-435 > 100 µM | MDA-N > 100 µM | NCI-H226 > 100 µM | NCI/ADR-RES > 100 µM | SF-295 > 100 µM | SK-MEL-28 > 100 µM | SK-MEL-5 > 100 µM | SK-OV-3 > 100 µM | SN12C > 100 µM | SNB-19 > 100 µM | SR > 100 µM | UACC-62 > 100 µM

O=C1C2C(C(=O)N1c1ccccc1)C1(c3ccccc3)CCC2(C(=O)c2ccccc2)O1 (stereo not drawn)
inactive: BT-549 > 10 µM | CCRF-CEM > 10 µM | DU-145 > 10 µM | HCC 2998 > 10 µM | IGROV-1 > 10 µM | KM12 > 10 µM | MDA-MB-435 > 10 µM | MDA-N > 10 µM | NCI/ADR-RES > 10 µM | SF-295 > 10 µM | SK-MEL-28 > 10 µM | SK-MEL-5 > 10 µM | SK-OV-3 > 10 µM | SN12C > 10 µM | SNB-19 > 10 µM | UACC-62 > 10 µM

CC(=O)OC1CC[C@@]2(C)C(CC[C@]3(C)C2CC=C2[C@@H]4CC(C)(C)CCC4(C)CCC23C)[C@@]1(C)C(=O)O (stereo partly drawn)
inactive: BT-549 29.9 µM | CCRF-CEM 23.4 µM | DU-145 16.6 µM | HCC 2998 14.5 µM | HOP-92 20.4 µM | IGROV-1 16.4 µM | K562 19.2 µM | KM12 12 µM | MDA-MB-435 15.2 µM | MDA-N 21.9 µM | NCI-H226 22 µM | SF-295 17.9 µM | SK-MEL-28 21.2 µM | SK-MEL-5 16.9 µM | SK-OV-3 17.7 µM | SN12C 16.4 µM | SNB-19 18.9 µM | SR 22.8 µM | UACC-62 15.4 µM
